According to PMC9399681, “Structural insight into ASH1L PHD finger recognizing methylated histone H3K4 and promoting cell growth in prostate cancer” (Frontiers in Oncology, 2022):
Substitutions are numbered along the chain they refer to.

Key:
Format in all cases: binding, mASH1L
ASH1L PHD finger [1] = target: T1, ASH1L PHD finger (Mus musculus, UniProt Q99MY8); test: ITC, ASH1L PHD finger with H3 peptides; conditions: MicroCal iTC200, 25°C, 1×PBS, 100-μM ZnCl2, pH 7.2; 100 µM protein titrated with 3 mM peptide; H3 (1–15) peptides, H3 (2–16) K9me2, H3 (29–43) K36me2
T1 construct: The mASH1L PHD domain (residue 2573–2624); MBP (cleaved yes); made in house; host or cells: Escherichia coli BL21 (DE3)
Method: The bacteria were grown in Luria Broth (LB) media, supplemented with 100-μM ZnCl2 (all PHD constructs). All PHD domains were expressed in Escherichia coli BL21 (DE3) cells and induced overnight with 0.5-mM isopropyl-β-D-1-thiogalactopyranoside (IPTG) at 22°C. In addition, the cells were harvested by centrifugation at 4,000 g. The harvested cells with MBP-tagged PHD were resuspended in buffer containing 25-mM Tris, pH 7.2, 1-M NaCl, 20-mM β-mercaptoethanol, 100-μM ZnCl2, and the Complete EDTA-free Protease Inhibitor (Roche, Mannheim, Germany). Following lysis in a microfluidizer (MFIC), cell debris was removed by centrifugation at 12,000 g for 1 h and the supernatant was loaded on a 5-ml MBPTrap HP column (GE Healthcare). The binding protein was eluted with buffer containing 25-mM Tris, pH 7.2, 500-mM NaCl, 20-mM β-mercaptoethanol, 20-mM maltose, and 100-μM ZnCl2. After TEV cleavage, the PHD domain was supplemented with 20-mM DTT and further purified using a Superdex 75 column (GE Healthcare, Uppsala, Sweden) in a final buffer containing 1×PBS, pH 7.2, 100- μM ZnCl2. […] The PHD protein was concentrated with a filter tube (Millipore, Co. Cork, Ireland) and measured by UV absorbance at 280 nm.
ITC assays were carried out on the MicroCal iTC200 System (Malvern) at 25°C while stirring at 750 rpm in the ITC buffer of pH 7.2, consisting of 1×PBS, 100-μM ZnCl2. […] The PHD or tandem Bromo-PHD protein sample of 100 µM was placed in the cell and titrated with 3 mM of a different peptide solution in the ITC buffer using a set of 31 injections of 1.2 μl, following a single initial injection of 0.2 μl. In the ITC measurements of PHD mutant samples, the H3 (1–15) peptides were diluted to the final concentrations of 1.5 mM, titrated with a single initial injection of 0.4 μl and followed with a set of 19 injections of 2 μl. Cumulative enthalpy exchange plots were derived from the raw thermal changes, using one set of a site-fitting model.

ASH1L PHD finger [2] = target: T1, ASH1L PHD finger; test: NMR titration, KD estimation; conditions: 100 μM PHD, peptide 25-2,000 μM, 298 K, 1×PBS, pH 7.2, 100-μM ZnCl2; single-site model; mean ± SEM; H3 (1–15) peptides
Text: (§1) The mASH1L PHD domain (residue 2573–2624) was subcloned into a modified pMAL-c5X expression vector (New England Biolabs, Ipswich, MA, US), which contains an MBP tag and a TEV cleavage site. The site-directed mutagenesis of D2573A, I2575A, D2584E, E2585A, M2588A, Q2590E, and W2597A in the PHD domain was generated using the PfuTurbo DNA polymerase (Agilent Technologies) and Dpn I restriction enzyme (New England Biolabs). After the MBP tag was cut by TEV, these proteins were used in ITC and NMR experiments. The His-tagged PHD domain was subcloned into a pGEX-4T1 expression vector. The base vector has a GST tag and was engineered to include a TEV cleavage site before a 5′ 6×His sequence. […]
(§2) The bacteria were grown in Luria Broth (LB) media, supplemented with 100-μM ZnCl2 (all PHD constructs). […] The size and purity of the purified protein were monitored by SDS-PAGE. The PHD protein was concentrated with a filter tube (Millipore, Co. Cork, Ireland) and measured by UV absorbance at 280 nm.
The ^1H,^15N HSQC spectra of the ^15N-labeled PHD finger were collected at 298 K on a Bruker 800-MHz NMR spectrometer equipped with the z-gradient triple-resonance cryoprobe. The binding was analyzed through monitoring chemical shift perturbations observed in the two-dimensional ^1H,^15N HSQC spectra of PHD finger upon the addition of H3 (aa 1-15) peptides (H3K4me, H3K4me2, H3K4me3). […]

ASH1L PHD M2588A = target: T2, ASH1L PHD M2588A (Mus musculus, UniProt Q99MY8, M2588A); test: ITC, ASH1L PHD mutant M2588A; conditions: 1.5 mM H3 (1–15) peptide, 25°C, pH 7.2, 1×PBS, 100-μM ZnCl2
T2 construct: The mASH1L PHD domain (residue 2573–2624); MBP (cleaved yes); made in house; host or cells: Escherichia coli BL21 (DE3)
T2 sequence (Q99MY8 2573-2624 M2588A): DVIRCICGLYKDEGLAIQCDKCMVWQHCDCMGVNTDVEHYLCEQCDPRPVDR
Text: as §1, with “sequence. After the GST tag was cut, this protein was used for the peptide array assay. The His-tagged Bromo-PHD tandem domain (residue 2425–2627) of mASH1L was subcloned into a pNIC-Bsa4 expression vector, which contains a His tag.” for “sequence.”
as §2, with “nm. […]” for “nm.”

ASH1L PHD Q2590E = target: T3, ASH1L PHD Q2590E (Mus musculus, UniProt Q99MY8, Q2590E); test: ITC, ASH1L PHD mutant Q2590E; conditions: 1.5 mM H3 (1–15) peptide, 25°C, pH 7.2, 1×PBS, 100-μM ZnCl2
T3 construct: The mASH1L PHD domain (residue 2573–2624); MBP (cleaved yes); made in house; host or cells: Escherichia coli BL21 (DE3)
T3 sequence (Q99MY8 2573-2624 Q2590E): T2 sequence (Q99MY8 2573-2624 M2588A) with A16M, Q18E
Text: as §1, with “sequence. After the GST tag was cut, this protein was used for the peptide array assay. The His-tagged Bromo-PHD tandem domain (residue 2425–2627) of mASH1L was subcloned into a pNIC-Bsa4 expression vector, which contains a His tag.” for “sequence.”
as §2, with “nm. […]” for “nm.”

ASH1L PHD W2597A = target: T4, ASH1L PHD W2597A (Mus musculus, UniProt Q99MY8, W2597A); test: ITC, ASH1L PHD mutant W2597A; conditions: 1.5 mM H3 (1–15) peptide, 25°C, pH 7.2, 1×PBS, 100-μM ZnCl2
T4 construct: The mASH1L PHD domain (residue 2573–2624); MBP (cleaved yes); made in house; host or cells: Escherichia coli BL21 (DE3)
T4 sequence (Q99MY8 2573-2624 W2597A): T2 sequence (Q99MY8 2573-2624 M2588A) with A16M, W25A
Text: as §1, with “sequence. After the GST tag was cut, this protein was used for the peptide array assay. The His-tagged Bromo-PHD tandem domain (residue 2425–2627) of mASH1L was subcloned into a pNIC-Bsa4 expression vector, which contains a His tag.” for “sequence.”
as §2, with “nm. […]” for “nm.”

- Kd (ASH1L PHD finger [1]): 64 ± 4 µM
- Kd (ASH1L PHD finger [2]): 106 ± 6 µM
- Kd (ASH1L PHD M2588A): > 200 µM
- Kd (ASH1L PHD Q2590E): 33 ± 8 µM
- Kd (ASH1L PHD W2597A): > 200 µM
Structure (SMILES): C[C@H](N)C(=O)N[C@@H](CCCNC(=N)N)C(=O)N[C@H](C(=O)N[C@@H](CCCC[N+](C)(C)C)C(=O)N[C@@H](CCC(N)=O)C(=O)N[C@H](C(=O)N[C@@H](C)C(=O)N[C@@H](CCCNC(=N)N)C(=O)N[C@@H](CCCCN)C(=O)N[C@@H](CO)C(=O)N[C@H](C(=O)NCC(=O)NCC(=O)N[C@@H](CCCCN)C(=O)N[C@@H](C)C(=O)O)[C@@H](C)O)[C@@H](C)O)[C@@H](C)O [H3K4me3]
